Results on 16 molecules are retold here after patent US7767204B2, “Method and composition for protecting neuronal tissue from damage induced by elevated glutamate levels” (Yeda Research And Development Co. Ltd., priority 2002, dated 2010).

The test system of series [1] is glutamate in blood cells and plasma (GPT, GOT, 2-ketoglutarate dehydrogenase, GDH). As to the kind of experiment: In-vitro glutamate levels and conversion in blood cell fraction and plasma. The class given is biochemical, rat. As to conditions: for blood cell (cellular) glutamate levels / plasma glutamate levels: incubation of blood with GDH co-factors in vitro. The protocol: (§1) Induction of rat blood glutamate metabolism and glutamate concentration determination—Fresh rat blood samples incubated at 37° C. were supplemented every 15 minutes or as noted with oxaloacetate and/or pyruvate (final concentration of 1 mM at pH 7.4).
(§2) At indicated time intervals, 150 μl aliquots were removed and centrifuged at 1,300×g for 7 minutes. Plasma volume (i.e., supernatant) was measured and was combined with identical volume of perchloric acid (PCA) to precipitate protein content. Precipitation was allowed to proceed for 10 minutes on ice and thereafter samples were centrifuged. Cell pellet (i.e., erythrocytes, lymphocytes and platelets) was lysed by osmotic shock following resuspension in double distilled water up to a final volume of 150 μl. A second step of protein precipitation was then performed by adding 150 μl of PCA [[…]]. Plasma and cell PCA-precipitated fractions were centrifuged at 16,000×g for 10 minutes and pellets were discarded.
Supernatant glutamate concentration was determined according to the fluorometric procedure of Graham and Aprison [(1996) Anal. Biochem. 15(3):487-97]. In brief: 20 μl aliquot of PCA precipitated fraction was added to 480 μl HG buffer containing 15 u of glutamate dehydrogenase in 0.2 mM NAD, 0.3 M glycine, 2.4% hydrazine hydrate adjusted to pH 6.8 with H2SO4 [1 N] and incubated at room temperature for 30-45 minutes. Fluorescence was measured at 460 nm following excitation at 350 nm. All measurements were performed alongside a glutamate standard curve at a glutamate concentration range of 0-6 μM. All glutamate measurements were performed in duplicates.
Results—Glutamate levels were therefore determined individually in blood cell fractions (closed symbols) and in plasma (open symbols), following repeated additions (arrows) of 1 mM pyruvate (squares), 1 mM oxaloacetate (triangles) or of a mixture of 1 mM pyruvate and 1 mM oxaloacetate (diamonds) (FIG. 2A). Glutamate determination was conducted as described in Example 1.

The nature of series [2]: Blood concentrations of pyruvate and oxaloacetate during intravenous infusion. The class given is in vivo, rat. To be noted: intravenous 50 μMoles/min each for 30 min. The protocol: Glutamate analyses of in-vivo treated blood samples were carried out according to the fluorometric procedure of Graham and Aprison [(1996) Anal. Biochem. 15(3):487-97]. Pyruvate concentration determination—Blood Pyruvate concentration was measured using the Sigma Diagnostics Pyruvate reagents according to manufacturer's instructions. In brief: the procedure utilizes lactate dehydrogenase which in the presence of excess NADH catalyzes almost complete conversion of pyruvate into lactate with a concomitant production of NAD. The reduction of absorbance at 340 nm due to the oxidation of NADH into NAD is the measure of the amount of pyruvate originally present.
(§3) Oxaloacetate concentration determination—Blood oxaloacetate concentration was measured using the same procedure as for pyruvate but using malate dehydrogenase which catalyses the conversion of oxaloacetate into malate along with the oxidation of NADH into NAD.
Results—The effect on glutamate levels via pyruvate and oxaloacetate administration through an intravenous catheter at a rate of 50 μMoles/minute for a duration of 30 minutes was determined. Blood concentrations of glutamate, pyruvate and oxaloacetate were monitored in parallel. […] However, as soon as the administration of pyruvate and oxaloacetate was stopped, their blood concentration decreased and the glutamate level increased concomitantly.

Series [3] is described as follows: Conversion of diethyloxaloacetate into oxaloacetate in rat blood and tissue homogenates. In kind it is in vitro ADME. As to conditions: 10 mM diethyloxaloacetate. The protocol:
as §3
The use of an oxaloacetate prodrug, which following in vivo administration, is converted to oxaloacetate, may obviate this problem. Thus the commercially available oxaloacetate diethylester (FIG. 27B) was considered in this context. Conversion of oxaloacetate diethylester into oxaloacetate following incubation with tissue homogenates derived from rat liver, colon, ileum, jejunum and duodenum was investigated.

The subject of series [4] is blood and plasma glutamate (GOT). As to the kind of experiment: Effect of diethyloxaloacetate on glutamate in rat blood and plasma in vitro. The class given is biochemical. As to conditions: 10 mM. Here is the method:
Thereafter, the effect of diethyloxaloacetate on Glutamate levels was assessed. Glutamate levels were determined in rat blood samples upon incubation in the absence or presence of 10 mM diethyloxaloacetate. […] FIG. 31 represents the amount of plasma glutamate converted probably into α-ketoglutarate following the activation of GOT as a function of time by the presence of 10 mM diethyloxaloacetate.

Series [5] deals with rat blood plasma glutamate (GOT, GPT). As to the kind of experiment: Glutamate conversion in rat blood plasma by pyruvate and oxaloacetate analogues. To be noted: for % of remaining Glutamate: rat blood plasma, 1 mM of each co-substrate. In kind it is biochemical. Here is the method:
A number of glutamate modifying enzymes were tested for their ability to enhance glutamate conversion in rat blood plasma. Table 1 below summarizes the results obtained with 1 mM of each co-substrate.

Series [6] can be described thus: Glutamate life time in blood after bolus intravenous injection of labelled glutamate. The class given is in vivo, rat. Here is the method: Results—Glutamate normalization may be accomplished by estimating the rate of disappearance of [^14C] glutamate from the blood, by methodology detailed in the preceding example. Administration of a bolus intravenous injections of 11 μCi radio-labeled glutamate in the absence or presence of non-radioactive glutamate was conducted and the presence of radioactivity in blood was monitored over time (FIG. 19).

In series [7] the test system is brain to blood glutamate efflux. The series can be described thus: Brain-to-blood [3H]Glu efflux after intracerebroventricular injection. To be noted: first 10 minutes after injection in lateral ventricle, n=8.
Protocol: Catheterization of the tail vein (for drug injections) and of the femoral vein (for blood aliquot withdrawals) was performed using PE10 polyethylene tubing linked to PE50 polyethylene tubing. […] A 27G steel cannula was implanted in the right lateral ventricle using the following stereotactic coordinates: 0.8 mm posterior to bregma; lateral 1.4 mm; depth: 4 mm from skull or 3.5 mm from dura. A [^3H] glutamate solution in phosphate buffered saline (PBS) was injected into the lateral ventricle through the implanted cannula using a Hamilton syringe (25 μl) connected to PE20 tube filled with solution. A total volume of 11 μl was injected within approximately 2 minutes.
For radioactivity determination, 50 μl blood samples were diluted in 500 μl H2O and added to 16 ml of scintillation fluid. Measured cpms were corrected for quenching as determined by comparing the measured cpms of a set volume of [^3H] glutamate added to water or to diluted blood. Body temperature was maintained with a lamp and rectal temperature was monitored. Rat pulse rate was monitored using a Periflux system 500 and a laser Doppler probe placed onto the skull.
Intravenous injections of pyruvate and oxaloacetate diluted in phosphate buffered saline (PBS) were carried out at a rate of 0.05 ml/minute for 30 minutes with a Pharmacia pump P-1.
The target of series [8] is T1, glutamate, 2-ketoglutarate (Escherichia coli, UniProt P00509).
T1 sequence (P00509 whole entry, looked up): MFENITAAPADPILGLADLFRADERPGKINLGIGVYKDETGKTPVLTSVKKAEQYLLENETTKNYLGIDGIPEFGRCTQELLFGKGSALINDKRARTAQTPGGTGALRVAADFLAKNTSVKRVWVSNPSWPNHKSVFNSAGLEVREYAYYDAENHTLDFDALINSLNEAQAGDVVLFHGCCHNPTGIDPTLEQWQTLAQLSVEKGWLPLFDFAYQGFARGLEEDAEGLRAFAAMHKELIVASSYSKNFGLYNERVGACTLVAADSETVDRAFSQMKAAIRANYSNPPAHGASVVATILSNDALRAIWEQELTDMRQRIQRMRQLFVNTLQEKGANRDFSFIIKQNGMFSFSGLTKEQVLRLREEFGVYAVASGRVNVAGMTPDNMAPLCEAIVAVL
To be noted: cited from earlier work.

The subject of series [9] is blood glutamate (blood resident GPT and GOT). The series can be described thus: In-vitro scavenging of glutamate in whole rat blood by activation of resident enzymes. As to conditions: 37° C., 1 mM co-substrate and/or 2.5 u/ml GPT. In kind it is biochemical. The protocol:
as §1, §2
Supernatant glutamate concentration was determined according to the fluorometric procedure of Graham and Aprison [(1996) Anal. Biochem. 15(3):487-97]. […] Fluorescence was measured at 460 nm following excitation at 350 nm. […]

Setting [10] is: rat blood in vitro, 24 hours, 37° C.
The mark [11] stands for this setting: normal blood glutamate concentration of 209 μM.

For `CC(C)C[C@H](N)C(=O)O` [Leucine], in series [1], the “blood cell (cellular) glutamate levels” value is “did not significantly alter glutamate levels” and the plasma glutamate levels result is “increased plasma glutamate levels”.

As to `CC(=O)C(=O)O` [Pyruvate], the “blood concentration built up” value in series [2] is 450 µM.

On to `CCOC(=O)CC(=O)C(=O)OCC` [diethyloxaloacetate], for which, in series [3] (liver and sections of rat gut mucosa, within 15 minutes), the “increase in basal oxaloacetate levels” value came to 400%. For the same molecule, the “increase of blood oxaloacetate” value in series [3] (setting [10]) is reported as 240%. In addition, the glutamate blood levels result in [4] (setting [10]) is given as “did not affect glutamate blood levels”. In series [4] (rat blood plasma in vitro, following 9 hours incubation), the plasma glutamate entry is given as “significant increase in plasma glutamate”.

`O=CC(=O)O` [Glyoxalate]: the “% of remaining Glutamate” value in series [5] is given as 74%.

Consider `CCC(=O)C(=O)O` [α-Ketobutyrate], for which the “decrease in plasma glutamate levels” value in series [5] (0.5 mM, rat plasma) is listed as “no effect”. In addition, the “glutamate degradation as compared to basal glutamate levels” value in series [5] (2 mM, rat plasma) stood at 40%. The “conversion of glutamate in the presence of oxaloacetate” value in series [5] (in the presence of 0.25 mM oxaloacetate) was “enhanced conversion of glutamate”. The “% of remaining Glutamate” value in series [5] is on record as 97%.

`O=CCCC(=O)O` [Succinic semialdehyde]: the “% of remaining Glutamate” value in series [5] was 78%.

`O=C(O)C(=O)CO` [β-Hydroxypyruvate]: the “% of remaining Glutamate” value in [5] is listed as 74%.

On to `O=C(O)C(=O)Cc1ccccc1` [β-Phenylpyruvate], for which the “% of remaining Glutamate” value in series [5] is 76%.

In the case of `N[C@@H](CCC(=O)O)C(=O)O` [[^3H] glutamate, glutamate], the results for the “glutamate eliminated per minute” value in [6] (blood glutamate 3.4 mM) and in series [6] (setting [11]) were 69 nmoles glutamate/ml blood and 5.4 nmoles of glutamate/ml blood, respectively. The “elimination half-life in blood” value is 24.6 min in series [6] (blood glutamate 3.4 mM after intraperitoneal 2 mMoles of glutamate) and 19.3 min in series [6] (setting [11]). Also, the elimination rate constant in series [6] (normal blood glutamate concentration) is 0.035 min⁻¹. Moreover, the “rate of appearance of radioactivity in blood, of the amount input in the brain per minute” value in series [7] is listed as 0.8%±0.1.

`Nc1ncnc2c1ncn2[C@@H]1O[C@H](COP(=O)(O)OP(=O)(O)O)[C@@H](O)[C@H]1O` [ADP]: in series [1], the “blood cell (cellular) glutamate levels” value is reported as “did not significantly alter glutamate levels” and the plasma glutamate levels result was “increased plasma glutamate levels”.

For the molecule α-Isocaproate, the “% of remaining Glutamate” value in [5] is 83%.

Take `NC(=O)c1ccc[n+]([C@@H]2O[C@H](COP(=O)([O-])OP(=O)(O)OC[C@H]3O[C@@H](n4cnc5c(N)ncnc54)[C@H](O)[C@@H]3O)[C@@H](O)[C@H]2O)c1` [NAD]: in series [1], the “blood cell (cellular) glutamate levels” value is “decrease in blood cell glutamate levels” and the plasma glutamate levels entry was “increase in plasma glutamate levels”.

With `Cc1ncc(COP(=O)(O)O)c(C=O)c1O` [pyridoxal phosphate], the “enhancement of pyruvate and oxaloacetate-mediated decrease in cellular or plasma glutamate” value in [1] (15 μM pyridoxal phosphate) is listed as “No significant effects”.

`O=C(O)CC(=O)C(=O)O` [Oxaloacetate]: in [2], the “blood concentration built up” value came to 450 µM.

B1: E. coli GOT: E. coli glutamate oxaloacetate transaminase, GenBank Accession No. D90731.1 (protein, UniProt P00509 1-396, looked up)
Aspartate aminotransferase: MFENITAAPADPILGLADLFRADERPGKINLGIGVYKDETGKTPVLTSVKKAEQYLLENETTKNYLGIDGIPEFGRCTQELLFGKGSALINDKRARTAQTPGGTGALRVAADFLAKNTSVKRVWVSNPSWPNHKSVFNSAGLEVREYAYYDAENHTLDFDALINSLNEAQAGDVVLFHGCCHNPTGIDPTLEQWQTLAQLSVEKGWLPLFDFAYQGFARGLEEDAEGLRAFAAMHKELIVASSYSKNFGLYNERVGACTLVAADSETVDRAFSQMKAAIRANYSNPPAHGASVVATILSNDALRAIWEQELTDMRQRIQRMRQLFVNTLQEKGANRDFSFIIKQNGMFSFSGLTKEQVLRLREEFGVYAVASGRVNVAGMTPDNMAPLCEAIVAVL
On to B1, for which, in [8], the “affinity for 2-ketoglutarate” value is on record as “about 0.2 mM” and the affinity for glutamate entry was “about 8 mM”.

B2: GPT: glutamate pyruvate transaminase enzyme added at 2.5 u/ml (protein, UniProt P24298 2-496, looked up)
Alanine aminotransferase 1: ASSTGDRSQAVRHGLRAKVLTLDGMNPRVRRVEYAVRGPIVQRALELEQELRQGVKKPFTEVIRANIGDAQAMGQRPITFLRQVLALCVNPDLLSSPNFPDDAKKRAERILQACGGHSLGAYSVSSGIQLIREDVARYIERRDGGIPADPNNVFLSTGASDAIVTVLKLLVAGEGHTRTGVLIPIPQYPLYSATLAELGAVQVDYYLDEERAWALDVAELHRALGQARDHCRPRALCVINPGNPTGQVQTRECIEAVIRFAFEERLFLLADEVYQDNVYAAGSQFHSFKKVLMEMGPPYAGQQELASFHSTSKGYMGECGFRGGYVEVVNMDAAVQQQMLKLMSVRLCPPVPGQALLDLVVSPPAPTDPSFAQFQAEKQAVLAELAAKAKLTEQVFNEAPGISCNPVQGAMYSFPRVQLPPRAVERAQELGLAPDMFFCLRLLEETGICVVPGSGFGQREGTYHFRMTILPPLEKLRLLLEKLSRFHAKFTLEYS
In the case of B2, the blood glutamate levels result in [9] was “significant increase in blood glutamate”.
